Test results published in ChEMBL document CHEMBL5308504, “Tm Shift (DSF) assay results for EUbOPEN Chemogenomics Library” (2023).
“And” between values parts separate entries of the source, which are not always exact repeats. Equal entries are not always repeated.

What was measured:
Peregrin (Homo sapiens) = biological target: T1, Peregrin (Homo sapiens) (UniProt P55201); conditions: Compound concentration 20.0 uM, Protein concentration 2.0 uM, Result type QC Liability
T1 sequence (whole entry): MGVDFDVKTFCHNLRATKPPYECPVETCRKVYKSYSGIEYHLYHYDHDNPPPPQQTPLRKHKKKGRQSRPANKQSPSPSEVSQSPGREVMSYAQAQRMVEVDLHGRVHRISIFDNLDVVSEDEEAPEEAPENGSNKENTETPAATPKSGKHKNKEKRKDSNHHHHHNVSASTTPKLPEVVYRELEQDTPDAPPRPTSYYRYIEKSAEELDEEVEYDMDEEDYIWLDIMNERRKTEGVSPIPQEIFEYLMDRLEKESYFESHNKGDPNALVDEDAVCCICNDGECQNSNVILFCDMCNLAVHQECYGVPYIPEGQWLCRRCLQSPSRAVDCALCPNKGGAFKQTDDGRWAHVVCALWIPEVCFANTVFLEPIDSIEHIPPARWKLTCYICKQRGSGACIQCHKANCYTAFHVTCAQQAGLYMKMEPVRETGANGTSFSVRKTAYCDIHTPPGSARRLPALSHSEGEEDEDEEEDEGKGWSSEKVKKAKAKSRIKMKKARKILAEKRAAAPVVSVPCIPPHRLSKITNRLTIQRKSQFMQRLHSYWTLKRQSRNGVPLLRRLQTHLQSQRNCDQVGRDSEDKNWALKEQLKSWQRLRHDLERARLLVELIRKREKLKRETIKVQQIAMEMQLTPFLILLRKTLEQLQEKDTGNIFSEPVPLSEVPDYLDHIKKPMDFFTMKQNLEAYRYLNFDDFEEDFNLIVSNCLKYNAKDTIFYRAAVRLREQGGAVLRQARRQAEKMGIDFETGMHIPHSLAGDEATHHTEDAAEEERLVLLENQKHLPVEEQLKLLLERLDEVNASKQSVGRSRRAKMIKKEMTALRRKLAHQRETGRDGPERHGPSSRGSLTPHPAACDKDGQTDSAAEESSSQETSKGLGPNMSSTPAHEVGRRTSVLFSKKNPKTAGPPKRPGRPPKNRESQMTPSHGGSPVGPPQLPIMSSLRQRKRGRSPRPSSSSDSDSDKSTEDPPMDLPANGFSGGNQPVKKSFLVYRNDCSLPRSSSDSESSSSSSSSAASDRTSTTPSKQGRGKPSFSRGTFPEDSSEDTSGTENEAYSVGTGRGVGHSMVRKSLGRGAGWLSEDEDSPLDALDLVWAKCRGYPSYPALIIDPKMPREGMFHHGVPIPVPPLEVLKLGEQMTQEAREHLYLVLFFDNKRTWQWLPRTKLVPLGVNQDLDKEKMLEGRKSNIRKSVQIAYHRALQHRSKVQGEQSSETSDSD

[1] = biological target: Fibroblast growth factor receptor 3 (Homo sapiens) (UniProt P22607); conditions: Compound concentration 20.0 uM, Protein concentration 2.0 uM, Result type QC Liability
Chain of Fibroblast growth factor receptor 3 (Homo sapiens) (P22607 23-806 limits assumed): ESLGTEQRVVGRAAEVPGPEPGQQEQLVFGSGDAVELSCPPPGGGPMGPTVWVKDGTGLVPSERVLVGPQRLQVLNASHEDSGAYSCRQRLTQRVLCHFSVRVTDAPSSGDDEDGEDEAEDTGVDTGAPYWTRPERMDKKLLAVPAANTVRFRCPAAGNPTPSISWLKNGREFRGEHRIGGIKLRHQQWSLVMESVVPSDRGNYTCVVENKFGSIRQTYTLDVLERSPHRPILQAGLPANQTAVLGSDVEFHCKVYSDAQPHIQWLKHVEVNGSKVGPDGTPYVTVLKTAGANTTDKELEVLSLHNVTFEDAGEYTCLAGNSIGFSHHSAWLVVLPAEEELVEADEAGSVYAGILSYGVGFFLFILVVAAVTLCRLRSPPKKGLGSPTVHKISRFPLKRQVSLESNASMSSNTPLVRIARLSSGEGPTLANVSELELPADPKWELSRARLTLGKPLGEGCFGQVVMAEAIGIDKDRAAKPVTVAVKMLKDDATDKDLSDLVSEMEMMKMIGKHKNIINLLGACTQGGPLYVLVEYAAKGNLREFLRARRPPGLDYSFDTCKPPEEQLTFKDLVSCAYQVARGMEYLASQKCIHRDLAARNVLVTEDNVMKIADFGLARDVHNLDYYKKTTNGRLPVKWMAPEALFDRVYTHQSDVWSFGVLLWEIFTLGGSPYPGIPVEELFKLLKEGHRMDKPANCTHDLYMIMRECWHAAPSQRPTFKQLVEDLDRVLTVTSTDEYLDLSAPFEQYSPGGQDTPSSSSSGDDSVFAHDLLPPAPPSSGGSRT
Description: Thermal Shift Assay. Domain: start/stop: P449-E759

Compound | ΔTm (Peregrin (Homo sapiens)) | ΔTm [1]
CCS(=O)(=O)c1cc2cc(C[C@](O)(CC(C)(C)c3ccc(F)cc3C(N)=O)C(F)(F)F)[nH]c2cn1 | -1.64 °C | 0.43 °C
Cc1ccc(NS(=O)(=O)c2ccc3c(c2)C2C=CCC2C(c2ccc(C(=O)O)cc2)N3)cc1C (stereo not drawn) | -0.5 °C | 0.11 °C
CNC(=O)COc1cc2cc(Nc3nc(N4CCC(C(=O)N(C)C)CC4)ncc3Cl)cc(OC)c2n(C)c1=O | -2.49 °C | 0.39 °C
CCn1ccc(Nc2ncc3c(n2)-c2c(nn(C)c2-c2ccc(-c4cnn(C)c4)cc2Cl)CC3)n1 | -0.93 °C | 2.93 °C
CCS(=O)(=O)c1cc2cc(C[C@@](O)(CC(C)(C)c3ccc(F)cc3C(N)=O)C(F)(F)F)[nH]c2cn1 | -2.1 °C and -0.15 °C | 0.69 °C and 0.88 °C
O=C(O)c1cc(F)c2nc(N3[C@@H]4CC[C@H]3C[C@@H](OCc3c(-c5ccccc5OC(F)(F)F)noc3C3CC3)C4)sc2c1 | -2.96 °C | -3.83 °C
Cc1nc2ccc(Oc3ccc(F)cc3)cc2c(=O)n1C[C@H]1CCCN(C(C)C)C1 | -2.47 °C | 0.96 °C
CCOC(=O)c1cc2cc(-c3cc(C(=O)NCc4ccc(C(=O)O)cc4)nn3C)ccc2[nH]1 | -3.42 °C | 0.83 °C
CC(C)(C)c1cc(NC(=O)c2csc(Nc3ccc(Cl)cc3)n2)no1 | -0.02 °C | 1.46 °C
Cc1cc2c(ncn2C2(C)CN(C(=O)c3ccn(CC4CCN([C@H]5C=CCCCC5)CC4)c3)C2)c(N)n1 | -0.47 °C | 0.4 °C
COc1cc2ncnc(Nc3ccc(F)c(Cl)c3)c2cc1OCCN(C)C[C@H](C)O | -1.85 °C | 1.03 °C
CC[C@H](Nc1c(C#N)c(-c2ccc(-c3cccc(C)c3F)cc2)nc2cnccc12)C(=O)O | -1.54 °C | -0.1 °C
N[C@@H]1CCCN(c2c(/C=C3\SC(=O)NC3=O)cccc2-c2ccccc2)C1 | -2.04 °C | 0.95 °C
COc1ccc(CC[C@@H](OC(=O)[C@H]2CCCCN2C(=O)[C@@H](c2cc(OC)c(OC)c(OC)c2)C2CCCCC2)c2cccc(OCCN3CCOCC3)c2)cc1OC | -4.81 °C | -3.96 °C
Cc1cc(SCc2sc(-c3ccc(C(F)(F)F)cc3)nc2C)ccc1OCC(=O)O | -1.59 °C | 1.04 °C
CCS(=O)(=O)Nc1cccc(Oc2cc(F)cc(Nc3ccc(I)cc3F)c2NS(=O)(=O)C2CC2)c1 | -1.34 °C | -1.54 °C
COc1ccc(COc2ccc(Cc3cnc(N)nc3N)cc2OC)cc1 | -1.34 °C | 0.48 °C
O=C(O)c1ccc2c(c1)nc(NCc1ccccc1)c1ncncc12 | -1.74 °C | 0.75 °C
C[C@@]1(Cc2ccc(C#N)cc2)C(=O)N(c2cc(Cl)cc(Cl)c2)c2ncc(C(=O)NC3(c4nc(C5CCC5)no4)CC3)n21 | 3.75 °C | 3.32 °C
Cc1[nH]nc(C(F)(F)F)c1Cc1sc2c(c1C(=O)N1C[C@](C)(O)CO1)c(=O)n(C)c(=O)n2C(C)C | -1.85 °C | 0.52 °C
Cn1ccc(Cn2cnc(-c3ccc(F)cc3)c2-c2ccnc3[nH]ccc23)n1 | -1.13 °C | 0.54 °C
C[C@@H]1COCCN1c1cc(=O)n2c(n1)N(Cc1cncc(Cl)c1)[C@H](C(F)(F)F)CC2 | -3.92 °C | 0.57 °C
COc1cc(CN(CCN)C(=O)N[C@@H](C)c2ccccc2)ccc1OCc1ccccc1 | -2.05 °C | 0.47 °C
Cc1cc(OC2CCS(=O)(=O)CC2)cc(C)c1-c1cccc(COc2ccc(C(=O)O)c(F)c2)c1 | -2.62 °C | 1.28 °C
COc1cc(F)ccc1-c1ncnc(Nc2cccc(C[S@](C)(=N)=O)c2)n1 | -1.17 °C | 1.31 °C
CC(=O)N1CCC(c2ccc(C(=O)NC3=NCCN3)cc2C(F)(F)F)CC1 | -1.55 °C | 0.6 °C
COc1cc(C(=O)NCCOCCOCCOCCC(=O)Nc2cccc3c2C(=O)N(C2CCC(=O)NC2=O)C3=O)ccc1Nc1ncc(C(F)(F)F)c(Oc2cccc3c2C(=O)CC3)n1 (stereo not drawn) | -2.32 °C | -3.01 °C
CN1C(=O)c2ccccc2N(C)c2nc(Nc3cnn(C4CCNCC4)c3)ncc21 | -0.9 °C | 6.58 °C
CC(C)N(CCCCOCC(=O)O)c1cnc(-c2ccccc2)c(-c2ccccc2)n1 | -4.18 °C | -0.51 °C
